Measurements reported in patent EP2888233B1, “SUBSTITUTED 6-AMINO-NICOTINAMIDES BEARING AN OH-CONTAINING GROUP AS KCNQ2/3 MODULATORS” (Grünenthal GmbH, priority 2012, dated 2013).

What was measured:
KCNQ2/3 channels = target: T1, KCNQ2/3 channels (Homo sapiens, UniProt O43525+O43526); assay: Fluorescence assay using a voltage sensitive dye (fluorimetry); format: cell-based; settings: for Emax: CHO-K1, CHO-K1 cells expressing KCNQ2/3 channels, read-out: Fluorimetry % efficacy (retigabine = 100%); for Emax / Fluorimetry % efficacy (retigabine = 100%): plateau effect relative to saturated Retigabine (50 µM) = 100%; for EC50 / Fluorimetry % efficacy (retigabine = 100%): CHO-K1 cells expressing KCNQ2/3 channels; for EC50: voltage-sensitive dye, KCl depolarization, read-out: Fluorimetry EC50 / IC50
T1 construct: expressed in transfected cells
From the text: Method I. Fluorescence assay using a voltage sensitive dye (fluorimetry)
The modulation of the KCNQ opening state (and consequently the voltage potential of a cell) by test compounds such as compounds according to the present invention results in an increased or reduced amount of a voltage-sensitive dye in the cytoplasm of the cells tested. These voltage-sensitive dyes are fluorescent dyes and, therefore, are forming the link between cell potential influenced by KCNQ modulation and fluorescence intensity. A KCNQ agonist leads to an opening of the channel, potassium and dye efflux, a following hyperpolarization and a reduction of the inner fluorescence intensity in a kinetic protocol. If applying an ion jump by KCl depolarization, KCNQ agonists increase the ΔF/F value. An antagonist performs vice versa, respectively.
The 'fluorimetry EC50' is the half maximum effective concentration (EC50), where the concentration of a drug/compound induces a response halfway between the baseline and maximum plateau effect. In other words, said value represents the concentration of a compound, where 50% of its maximal effect in the fluorimetric assay is observed if the substance concentration is graphed against the corresponding ΔF/F values (for which the calculation method is described below). Therefore, 'fluorimetry EC50' is a measure for the compound potency. The compound efficacy is mirrored by 'fluorimetry % efficacy' ('%Efficacy') and refers to the maximum response achievable by the test compound, i.e. the plateau effect. This drug's plateau effect is related to the plateau effect, which can be achieved by applying a saturated concentration of a reference compound, e.g. Retigabine (50 µM), in independent wells of the same experimental plate or series. A compound showing 100% efficacy is as efficacious as the reference compound (Retigabine) with a saturated concentration.
[…] CHO-K1 cells expressing KCNQ2/3 channels are cultivated adherently at 37°C, 5% CO2 and 95% humidity in cell culture bottles (e.g. 80 cm^2 TC flasks, Nunc) with DMEM-high glucose (Sigma Aldrich, D7777) including 10% FCS (PAN Biotech, e.g. 3302-P270521) or alternatively MEM Alpha Medium (1x, liquid, Invitrogen, #22571), 10% fetal calf serum (FCS) (Invitrogen, #10270-106, heat-inactivated) and the necessary selection antibiotics.
Before being sown out for the measurements, the cells are washed with 1 x DPBS buffer Ca^2+/Mg^2+-free (e.g. Invitrogen, #14190-094) and detached from the bottom of the culture vessel by using Accutase (PAA Laboratories, #L11-007) (incubation with Accutase for 15 min at 37°C). The cell number is determined using a CASY™ cell counter (TCC, Schärfe System). Depending on the optimal density for each individual cell line, 20,000-30,000 cells/well/100 µl are seeded onto 96-well Corning™ CellBIND™ assay plates (Flat Clear Bottom Black Polystyrene Microplates, #3340). Freshly seeded cells are then left to settle for one hour at room temperature, followed by incubation for 24 hours at 37°C, 5% CO2 and 95% humidity.
The voltage-sensitive fluorescent dye from the Membrane Potential Assay Kit (Red™ Bulk format part R8123 for FLIPR, MDS Analytical Technologies™) is prepared by dissolving the contents of one vessel Membrane Potential Assay Kit Red Component A in 200 ml of extracellular buffer (ES buffer, 120 mM NaCl, 1 mM KCI, 10 mM HEPES, 2 mM CaCl2, 2 mM MgCl2, 10 mM glucose; pH 7.4). After removal of the nutrient medium, the cells are washed once with 200 µl of ES buffer, then loaded for 45 min at room temperature in 100 µl of dye solution in the dark.
Fluorescence measurements are carried out in a BMG Labtech FLUOstar™, BMG Labtech NOVOstar™ or BMG Labtech POLARstar™ instrument (525 nm excitation, 560 nm emission, Bottom Read mode). […]

[1] = test system: withdrawal reflex of the rat tail (tail flick); assay: Low-intensity tail flick test (rat); format: in vivo, Male Sprague-Dawley rats; settings: MPE [%] at dose 10 mg/kg, dose printed in brackets in the cell
Method: Method II. Low-intensity tail flick test (rat)
In the low-intensity tail flick test, the determination of the antinociceptive effect of the compounds according to the invention towards an acute noxious thermal stimulus is carried out by measuring the withdrawal reflex of the rat tail (tail flick) in response to a radiant heat beam (analgesia meter; model 2011 of the company Rhema Labortechnik, Hofheim, Germany) according to the method described by D'Amour and Smith (J. Pharm. Exp. Ther. 72, 74 79 (1941). To this end, the rats were placed in a plexiglas restrainer, and a low-intensity radiant heat beam (48°C) was focused onto the dorsal surface of the tail root. […] Before administration of a compound according to the invention, the animals were pre-tested twice in the course of five minutes and the mean of these measurements was calculated as the pre-test mean. The antinociceptive effect was determined at 20, 40 and 60 min after peroral compound administration. The antinociceptive effect was calculated based on the increase in the tail withdrawal latency according to the following formula and is expressed as percentage of the maximum possible effect (MPE [%]): MPE = [(T1−T0)/(T2−T0)]*100 [formula] […]

| Emax (KCNQ2/3 channels) | EC50 (KCNQ2/3 channels) | Fluorimetry % efficacy (retigabine = 100%) (KCNQ2/3 channels) | SMILES | Low intensity tail flick, rat, peroral, ED50 or MPE (dose) [1] |
| --- | --- | --- | --- | --- |
| 239% | 0.431 µM | – | Cc1cc(N2CCOCC2)nc(C(C)C)c1C(=O)NCCC(O)C(C)(C)C (single isomer, unassigned) [Example 5a, N-(3-hydroxy-4,4-dimethyl-pentyl)-2-isopropyl-4-methyl-6-morpholin-4-yl-pyridine-3-carboxylic acid amide] | – |
| – | 3.92 µM | 149% | Cc1cc(N2CCOCC2)nc(C(C)C)c1C(=O)NCCC(O)C(F)(F)F (single isomer, unassigned) [Example 6b, 2-Isopropyl-4-methyl-6-morpholin-4-yl-N-(4,4,4-trifluoro-3-hydroxy-butyl)-pyridine-3-carboxylic acid amide] | – |
| – | 0.094 µM | 239% | Cc1cc(N2CCOCC2)nc(C(C)C)c1C(=O)NCCC(O)C(C)(C)C (single isomer, unassigned) [Example 5b, N-(3-hydroxy-4,4-dimethyl-pentyl)-2-isopropyl-4-methyl-6-morpholin-4-yl-pyridine-3-carboxylic acid amide] | – |
| – | 1.09 µM | 206% | Cc1cc(N2CCOCC2)nc(C(C)C)c1C(=O)NCCC(O)C(F)(F)F (single isomer, unassigned) [Example 6a, 2-Isopropyl-4-methyl-6-morpholin-4-yl-N-(4,4,4-trifluoro-3-hydroxy-butyl)-pyridine-3-carboxylic acid amide] | – |

Second part, the compound before the results:

| SMILES | Emax (KCNQ2/3 channels) | EC50 (KCNQ2/3 channels) | Fluorimetry % efficacy (retigabine = 100%) (KCNQ2/3 channels) | Low intensity tail flick, rat, peroral, ED50 or MPE (dose) [1] |
| --- | --- | --- | --- | --- |
| Cc1cc(N2CCOCC2)nc(C2CC2)c1C(=O)NCCC(O)C(C)(C)C (stereo not shown) [Example 1, 2-Cyclopropyl-N-(3-hydroxy-4,4-dimethyl-pentyl)-4-methyl-6-morpholin-4-yl-pyridine-3-carboxylic acid amide] | 237% | 0.529 µM | – | – |
| Cc1cc(N2CCOCC2)nc(C2CC2)c1C(=O)NC[C@H]1CCCC[C@@H]1O [Example 3, 2-Cyclopropyl-N-[[(1R,2S)-2-hydroxy-cyclohexyl]-methyl]-4-methyl-6-morpholin-4-yl-pyridine-3-carboxylic acid amide] | 99% | 8.55 µM | – | – |
| Cc1cc(N2CCOCC2)nc(C2CC2)c1C(=O)NCCC(O)C(C)(C)C (single isomer, unassigned) [Example 1a, 2-cyclopropyl-N-(3-hydroxy-4,4-dimethyl-pentyl)-4-methyl-6-morpholin-4-yl-pyridine-3-carboxylic acid amide] | 242% | 0.961 µM | – | – |
| Cc1cc(N2CCOCC2)nc(C(C)C)c1C(=O)NCCC(O)C(F)(F)F (stereo not shown) [Example 6, 2-Isopropyl-4-methyl-6-morpholin-4-yl-N-(4,4,4-trifluoro-3-hydroxy-butyl)-pyridine-3-carboxylic acid amide] | 150% | 1.99 µM | – | – |
| Cc1cc(N2CCOCC2)nc(C(C)C)c1C(=O)NC[C@@H]1CCCC[C@H]1O [Example 7, N-[[(1S,2R)-2-Hydroxy-cyclohexyl]-methyl]-2-isopropyl-4-methyl-6-morpholin-4-yl-pyridine-3-carboxylic acid amide] | 243% | 0.185 µM | – | – |
| CCOc1nc(N2CCOCC2)cc(C)c1C(=O)NCCC(O)C(C)(C)C (stereo not shown) [Example 8, 2-Ethoxy-N-(3-hydroxy-4,4-dimethyl-pentyl)-4-methyl-6-morpholin-4-yl-pyridine-3-carboxylic acid amide] | 231% | 0.252 µM | – | – |
| Cc1cc(N2CCOCC2)nc(C(C)C)c1C(=O)NCCC(O)C(C)(C)C (stereo not shown) [Example 5, N-(3-Hydroxy-4,4-dimethyl-pentyl)-2-isopropyl-4-methyl-6-morpholin-4-yl-pyridine-3-carboxylic acid amide] | 230% | 0.156 µM | – | – |
| Cc1cc(N2CCOCC2)nc(C2CC2)c1C(=O)NCCC(O)C(C)(C)C (single isomer, unassigned) [Example 1b, 2-cyclopropyl-N-(3-hydroxy-4,4-dimethyl-pentyl)-4-methyl-6-morpholin-4-yl-pyridine-3-carboxylic acid amide] | – | 0.318 µM | 224% | 100 (10) % |
| Cc1cc(N2CCOCC2)nc(C2CC2)c1C(=O)NC[C@@H]1CCCC[C@H]1O [Example 2, 2-Cyclopropyl-N-[[(1S,2R)-2-hydroxy-cyclohexyl]-methyl]-4-methyl-6-morpholin-4-yl-pyridine-3-carboxylic acid amide] | 245% | 0.483 µM | – | 67 (10) % |
